Data as given in ChEMBL document CHEMBL4184197 (Bioorg Med Chem, 2018).

What was measured:
Salmonella typhimurium [1] = experiment: Mutagenicity in Salmonella typhimurium TA98 in presence of rat liver S9 fraction by Ames test; type: toxicity, organism-based; conditions: salmonella enterica subsp. enterica serovar typhimurium
Salmonella typhimurium [2] = experiment: Mutagenicity in Salmonella typhimurium TA98 in absence of rat liver S9 fraction by Ames test; type: toxicity, organism-based; conditions: salmonella enterica subsp. enterica serovar typhimurium
Salmonella typhimurium [3] = experiment: Mutagenicity in Salmonella typhimurium TA100 in presence of rat liver S9 fraction by Ames test; type: toxicity, organism-based; conditions: salmonella enterica subsp. enterica serovar typhimurium
Homo sapiens [4] = species on record: Homo sapiens; experiment: Binding affinity to bombesin receptor (unknown origin) at 10 uM relative to control
[5] = target: Beta-2 adrenergic receptor (Homo sapiens) (UniProt P07550); experiment: Binding affinity to recombinant human beta 2 adrenoceptor at 10 uM after 120 mins by scintillation counting analysis relative to control
Sequence of Beta-2 adrenergic receptor (Homo sapiens) (P07550 whole entry, looked up): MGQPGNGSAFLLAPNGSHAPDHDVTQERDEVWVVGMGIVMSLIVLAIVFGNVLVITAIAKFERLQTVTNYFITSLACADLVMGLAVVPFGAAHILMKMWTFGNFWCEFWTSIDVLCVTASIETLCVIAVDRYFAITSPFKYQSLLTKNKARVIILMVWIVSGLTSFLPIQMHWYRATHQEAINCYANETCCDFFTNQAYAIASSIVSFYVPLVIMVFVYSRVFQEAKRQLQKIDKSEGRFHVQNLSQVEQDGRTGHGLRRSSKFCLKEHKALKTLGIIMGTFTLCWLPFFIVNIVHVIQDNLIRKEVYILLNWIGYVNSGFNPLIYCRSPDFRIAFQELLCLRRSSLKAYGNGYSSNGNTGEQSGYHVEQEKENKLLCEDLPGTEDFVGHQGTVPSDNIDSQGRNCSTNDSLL

[6] = target: D(2) dopamine receptor (Homo sapiens) (UniProt P14416); experiment: Binding affinity to recombinant human dopamine receptor D2S at 10 uM after 60 mins by scintillation counting analysis relative to control
Sequence of D(2) dopamine receptor (Homo sapiens) (P14416 whole entry): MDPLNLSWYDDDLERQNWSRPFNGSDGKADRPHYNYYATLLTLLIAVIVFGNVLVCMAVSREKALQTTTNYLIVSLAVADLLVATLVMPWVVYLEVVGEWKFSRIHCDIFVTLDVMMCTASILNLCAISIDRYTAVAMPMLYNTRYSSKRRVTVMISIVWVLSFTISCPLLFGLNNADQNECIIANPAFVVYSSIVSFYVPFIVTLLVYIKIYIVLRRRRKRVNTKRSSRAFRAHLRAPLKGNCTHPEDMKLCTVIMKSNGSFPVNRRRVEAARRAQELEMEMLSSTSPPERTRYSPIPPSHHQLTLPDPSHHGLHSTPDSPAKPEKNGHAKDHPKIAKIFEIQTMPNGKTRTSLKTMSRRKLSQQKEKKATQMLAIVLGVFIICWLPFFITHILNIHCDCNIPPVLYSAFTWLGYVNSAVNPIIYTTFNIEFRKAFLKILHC

[7] = target: D(1B) dopamine receptor (Homo sapiens) (UniProt P21918); experiment: Binding affinity to recombinant human dopamine receptor D5 at 10 uM after 60 mins by scintillation counting analysis relative to control
Sequence of D(1B) dopamine receptor (Homo sapiens) (P21918 whole entry): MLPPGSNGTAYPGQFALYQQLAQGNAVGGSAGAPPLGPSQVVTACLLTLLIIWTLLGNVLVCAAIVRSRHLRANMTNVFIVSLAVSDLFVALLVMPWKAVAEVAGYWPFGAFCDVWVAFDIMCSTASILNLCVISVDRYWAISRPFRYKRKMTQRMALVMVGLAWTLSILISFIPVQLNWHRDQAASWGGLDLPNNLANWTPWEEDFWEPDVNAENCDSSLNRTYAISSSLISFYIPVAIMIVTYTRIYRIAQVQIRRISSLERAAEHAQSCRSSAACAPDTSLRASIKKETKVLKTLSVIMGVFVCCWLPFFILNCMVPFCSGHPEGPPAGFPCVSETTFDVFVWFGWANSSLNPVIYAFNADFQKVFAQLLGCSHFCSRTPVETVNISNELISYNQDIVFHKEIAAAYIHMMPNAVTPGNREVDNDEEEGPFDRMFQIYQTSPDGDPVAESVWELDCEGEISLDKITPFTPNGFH

[8] = target: Galanin receptor type 1 (Homo sapiens) (UniProt P47211); experiment: Binding affinity to recombinant human GAL1 receptor at 10 uM after 120 mins by scintillation counting analysis relative to control
Sequence of Galanin receptor type 1 (Homo sapiens) (P47211 whole entry): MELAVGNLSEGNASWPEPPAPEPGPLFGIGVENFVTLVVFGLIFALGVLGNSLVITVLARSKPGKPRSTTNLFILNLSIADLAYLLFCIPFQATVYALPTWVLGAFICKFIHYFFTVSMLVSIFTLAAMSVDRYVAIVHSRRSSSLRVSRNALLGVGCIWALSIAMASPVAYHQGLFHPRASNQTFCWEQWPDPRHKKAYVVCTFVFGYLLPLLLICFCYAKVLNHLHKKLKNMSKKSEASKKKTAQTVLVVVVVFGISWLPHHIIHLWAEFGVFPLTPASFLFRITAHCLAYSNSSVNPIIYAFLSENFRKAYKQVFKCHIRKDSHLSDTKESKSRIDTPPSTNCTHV

[9] = target: Mu-type opioid receptor (Homo sapiens) (UniProt P35372); experiment: Binding affinity to recombinant human mu opioid receptor at 10 uM after 120 mins by scintillation counting analysis relative to control
Sequence of Mu-type opioid receptor (Homo sapiens) (P35372 whole entry): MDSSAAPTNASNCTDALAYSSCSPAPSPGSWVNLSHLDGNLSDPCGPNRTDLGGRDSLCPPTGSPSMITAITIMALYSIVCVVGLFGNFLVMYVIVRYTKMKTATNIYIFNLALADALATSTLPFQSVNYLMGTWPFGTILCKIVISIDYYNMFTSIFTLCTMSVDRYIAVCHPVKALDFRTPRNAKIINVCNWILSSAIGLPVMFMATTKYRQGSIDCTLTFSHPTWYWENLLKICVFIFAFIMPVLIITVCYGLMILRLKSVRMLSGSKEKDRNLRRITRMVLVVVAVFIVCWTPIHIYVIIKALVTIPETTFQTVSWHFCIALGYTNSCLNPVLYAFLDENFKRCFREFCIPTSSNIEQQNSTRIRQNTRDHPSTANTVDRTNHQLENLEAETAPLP

[10] = target: Prostacyclin receptor (Homo sapiens) (UniProt P43119); experiment: Binding affinity to recombinant human IP receptor at 10 uM after 60 mins by scintillation counting analysis relative to control
[11] = target: 5-hydroxytryptamine receptor 2A (Homo sapiens) (UniProt P28223); experiment: Binding affinity to recombinant human 5-HT2A receptor at 10 uM after 60 mins by scintillation counting analysis relative to control
[12] = target: 5-hydroxytryptamine receptor 2C (Homo sapiens) (UniProt P28335); experiment: Binding affinity to recombinant human 5-HT2C receptor at 10 uM after 60 mins by scintillation counting analysis relative to control
[13] = target: 5-hydroxytryptamine receptor 3A (Homo sapiens) (UniProt P46098); experiment: Binding affinity to recombinant human 5-HT3 receptor at 10 uM after 120 mins by scintillation counting analysis relative to control
Sequence of 5-hydroxytryptamine receptor 3A (Homo sapiens) (P46098 whole entry): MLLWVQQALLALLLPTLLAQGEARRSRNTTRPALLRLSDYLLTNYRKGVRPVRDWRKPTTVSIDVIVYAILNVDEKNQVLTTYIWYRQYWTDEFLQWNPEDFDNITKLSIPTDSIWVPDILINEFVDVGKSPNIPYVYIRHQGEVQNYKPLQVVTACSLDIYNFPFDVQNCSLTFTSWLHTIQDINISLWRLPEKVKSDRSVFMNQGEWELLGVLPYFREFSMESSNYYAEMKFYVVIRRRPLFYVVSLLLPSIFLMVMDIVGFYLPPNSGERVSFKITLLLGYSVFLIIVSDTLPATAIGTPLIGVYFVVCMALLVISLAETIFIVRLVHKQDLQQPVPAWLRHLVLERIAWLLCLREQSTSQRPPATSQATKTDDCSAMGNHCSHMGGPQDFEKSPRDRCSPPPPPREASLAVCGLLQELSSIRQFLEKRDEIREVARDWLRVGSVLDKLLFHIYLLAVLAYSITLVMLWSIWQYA

Homo sapiens [14] = species on record: Homo sapiens; experiment: Binding affinity to human sigma receptor at 10 uM after 120 mins by scintillation counting analysis relative to control
[15] = test system: Voltage-gated potassium channel; experiment: Binding affinity to voltage-gated potassium channel (unknown origin) at 10 uM relative to control; type: protein assay; conditions: human
[16] = target: Sodium-dependent serotonin transporter (Homo sapiens) (UniProt P31645); experiment: Binding affinity to 5-HT transporter (unknown origin) at 10 uM relative to control
Sequence of Sodium-dependent serotonin transporter (Homo sapiens) (P31645 whole entry, looked up): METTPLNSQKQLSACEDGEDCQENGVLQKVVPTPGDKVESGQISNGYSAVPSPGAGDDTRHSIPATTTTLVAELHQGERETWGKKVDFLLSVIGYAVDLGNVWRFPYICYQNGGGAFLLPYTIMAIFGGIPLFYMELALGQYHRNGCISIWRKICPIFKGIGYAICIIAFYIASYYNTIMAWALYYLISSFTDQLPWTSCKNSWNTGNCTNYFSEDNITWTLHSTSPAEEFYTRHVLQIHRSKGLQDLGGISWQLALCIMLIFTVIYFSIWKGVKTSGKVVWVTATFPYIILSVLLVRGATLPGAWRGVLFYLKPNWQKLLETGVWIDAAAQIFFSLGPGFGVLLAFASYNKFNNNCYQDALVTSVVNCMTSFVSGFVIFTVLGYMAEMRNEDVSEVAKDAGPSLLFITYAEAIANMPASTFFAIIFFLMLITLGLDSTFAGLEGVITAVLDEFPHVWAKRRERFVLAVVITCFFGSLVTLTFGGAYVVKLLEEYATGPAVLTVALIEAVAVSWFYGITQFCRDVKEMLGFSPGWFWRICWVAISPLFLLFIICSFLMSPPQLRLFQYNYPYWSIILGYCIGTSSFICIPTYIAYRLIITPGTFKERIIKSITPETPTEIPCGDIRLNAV

[17] = target: Cathepsin D (Homo sapiens) (UniProt P07339); experiment: Binding affinity to human cathepsin D at 10 uM after 30 mins by fluorescence assay relative to control
Sequence of Cathepsin D (Homo sapiens) (P07339 65-162 limits assumed): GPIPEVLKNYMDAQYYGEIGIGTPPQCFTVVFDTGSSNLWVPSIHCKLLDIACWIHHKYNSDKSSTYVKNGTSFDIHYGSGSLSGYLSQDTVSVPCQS
Sequence of Cathepsin D (Homo sapiens) (P07339 169-412 limits assumed): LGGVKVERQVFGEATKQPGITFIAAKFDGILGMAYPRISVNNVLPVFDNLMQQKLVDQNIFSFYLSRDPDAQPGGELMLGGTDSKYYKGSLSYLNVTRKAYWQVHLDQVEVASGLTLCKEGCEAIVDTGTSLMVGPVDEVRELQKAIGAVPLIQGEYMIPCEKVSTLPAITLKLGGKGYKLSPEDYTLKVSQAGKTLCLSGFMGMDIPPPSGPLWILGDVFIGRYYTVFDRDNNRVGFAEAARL

[18] = target: M-phase inducer phosphatase 1 (Homo sapiens) (UniProt P30304); experiment: Binding affinity to recombinant human phosphatase CDC25A at 10 uM after 20 mins by fluorescence assay relative to control
Sequence of M-phase inducer phosphatase 1 (Homo sapiens) (P30304 whole entry): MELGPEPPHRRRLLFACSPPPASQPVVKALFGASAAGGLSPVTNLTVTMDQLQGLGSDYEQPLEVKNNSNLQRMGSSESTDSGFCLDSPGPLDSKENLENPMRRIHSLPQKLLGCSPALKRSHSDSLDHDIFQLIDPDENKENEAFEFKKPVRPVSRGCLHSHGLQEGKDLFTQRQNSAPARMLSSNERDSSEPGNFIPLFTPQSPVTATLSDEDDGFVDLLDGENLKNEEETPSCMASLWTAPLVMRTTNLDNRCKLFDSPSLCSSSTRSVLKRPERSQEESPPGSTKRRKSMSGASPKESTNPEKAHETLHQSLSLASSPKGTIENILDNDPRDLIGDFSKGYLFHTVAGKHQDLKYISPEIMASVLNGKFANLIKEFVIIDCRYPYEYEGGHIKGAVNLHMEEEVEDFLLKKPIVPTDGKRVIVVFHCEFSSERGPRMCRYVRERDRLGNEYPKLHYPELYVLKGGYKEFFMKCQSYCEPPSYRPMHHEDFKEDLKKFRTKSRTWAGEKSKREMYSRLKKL

[19] = target: Histone deacetylase 3 (Homo sapiens) (UniProt O15379); experiment: Binding affinity to recombinant human HDAC3 at 10 uM after 10 mins by fluorescence analysis relative to control
[20] = target: NAD-dependent protein deacetylase sirtuin-1 (Homo sapiens) (UniProt Q96EB6); experiment: Binding affinity to surtuin-1 (unknown origin) at 10 uM by relative to control
Sequence of NAD-dependent protein deacetylase sirtuin-1 (Homo sapiens) (Q96EB6 whole entry): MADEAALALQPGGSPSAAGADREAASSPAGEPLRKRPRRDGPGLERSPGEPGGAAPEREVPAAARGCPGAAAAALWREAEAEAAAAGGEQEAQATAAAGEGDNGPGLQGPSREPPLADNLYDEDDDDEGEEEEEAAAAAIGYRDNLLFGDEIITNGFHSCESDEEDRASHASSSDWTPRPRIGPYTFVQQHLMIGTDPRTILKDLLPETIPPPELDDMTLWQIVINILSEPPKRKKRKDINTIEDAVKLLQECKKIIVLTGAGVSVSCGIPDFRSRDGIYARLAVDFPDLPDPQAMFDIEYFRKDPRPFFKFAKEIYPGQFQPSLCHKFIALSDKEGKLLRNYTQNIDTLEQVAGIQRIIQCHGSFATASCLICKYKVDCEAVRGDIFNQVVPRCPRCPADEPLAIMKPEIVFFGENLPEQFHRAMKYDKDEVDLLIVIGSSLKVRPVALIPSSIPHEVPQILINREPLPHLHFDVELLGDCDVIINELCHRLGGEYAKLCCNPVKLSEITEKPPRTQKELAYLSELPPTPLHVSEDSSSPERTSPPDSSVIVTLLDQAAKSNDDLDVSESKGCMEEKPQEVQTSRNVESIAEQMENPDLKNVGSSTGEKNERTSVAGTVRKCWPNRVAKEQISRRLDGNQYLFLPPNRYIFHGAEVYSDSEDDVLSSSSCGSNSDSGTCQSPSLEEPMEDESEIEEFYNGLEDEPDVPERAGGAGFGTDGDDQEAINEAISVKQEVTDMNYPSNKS

In the case of `CCOc1c(Cl)cc(C(=O)Nc2ccc(C(=O)O)c(C)c2)cc1OC(C)C`, the Activity (Salmonella typhimurium [1]) was “Non-Toxic”, the Activity (Salmonella typhimurium [2]) was “Non-Toxic” and the Activity (Salmonella typhimurium [3]) was “Non-Toxic”. The Activity (Homo sapiens [4]) was less than 25%, the Activity [5] was less than 25% and the Activity [6] was less than 25%. The Activity [7] was less than 25%, the Activity [8] was less than 25% and the Activity [9] was less than 25%. For the same compound, the Activity [10] was less than 25%, the Activity [11] was less than 25% and the Activity [12] was less than 25%. The Activity [13] was less than 25%, the Activity (Homo sapiens [14]) was less than 25% and the Activity [15] was “<= 25%”. The Activity [16] was less than 25%, the Activity [17] was less than 25% and the Activity [18] was less than 25%. The Activity [19] was less than 25% and the Activity [20] was less than 25%.
